Legend:
[1] = target: T1, Bifunctional epoxide hydrolase 2 (Homo sapiens, UniProt P34913); test: Inhibition of full length human soluble epoxide hydrolase (1 to 555 residues) expressed in Escherichia coli BL21(DE3) using non-fluorescent PHOME as substrate preincubated for 30 mins followed by substrate addition and measured for 30 mins by fluorescence based assay
T1 sequence (P34913 whole entry): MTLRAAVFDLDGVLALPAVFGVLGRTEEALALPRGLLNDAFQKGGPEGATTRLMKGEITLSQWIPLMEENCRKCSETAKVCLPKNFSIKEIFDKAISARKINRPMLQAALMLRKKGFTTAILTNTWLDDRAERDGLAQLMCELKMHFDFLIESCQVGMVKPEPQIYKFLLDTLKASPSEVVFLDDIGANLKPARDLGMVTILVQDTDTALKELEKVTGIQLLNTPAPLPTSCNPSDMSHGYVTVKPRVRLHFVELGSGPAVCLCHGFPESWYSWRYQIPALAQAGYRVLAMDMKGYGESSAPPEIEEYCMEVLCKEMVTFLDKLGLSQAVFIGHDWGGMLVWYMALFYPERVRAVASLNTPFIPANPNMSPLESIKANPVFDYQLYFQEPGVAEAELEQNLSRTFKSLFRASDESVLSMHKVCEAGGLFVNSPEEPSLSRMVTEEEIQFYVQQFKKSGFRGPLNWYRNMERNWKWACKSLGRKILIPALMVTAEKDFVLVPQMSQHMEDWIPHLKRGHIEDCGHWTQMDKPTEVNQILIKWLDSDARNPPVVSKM

[2] = target: T2, Leukotriene A-4 hydrolase (Homo sapiens, UniProt P09960); test: Inhibition of (His)6 tagged human recombinant LTA4H expressed in Escherichia coli BL21(DE3) using non-fluorescent L-arginine-7-amino-4-methylcoumarine as substrate preincubated for 30 mins followed by substrate addition and measured for 30 mins by fluorescence based assay
T2 sequence (P09960 whole entry): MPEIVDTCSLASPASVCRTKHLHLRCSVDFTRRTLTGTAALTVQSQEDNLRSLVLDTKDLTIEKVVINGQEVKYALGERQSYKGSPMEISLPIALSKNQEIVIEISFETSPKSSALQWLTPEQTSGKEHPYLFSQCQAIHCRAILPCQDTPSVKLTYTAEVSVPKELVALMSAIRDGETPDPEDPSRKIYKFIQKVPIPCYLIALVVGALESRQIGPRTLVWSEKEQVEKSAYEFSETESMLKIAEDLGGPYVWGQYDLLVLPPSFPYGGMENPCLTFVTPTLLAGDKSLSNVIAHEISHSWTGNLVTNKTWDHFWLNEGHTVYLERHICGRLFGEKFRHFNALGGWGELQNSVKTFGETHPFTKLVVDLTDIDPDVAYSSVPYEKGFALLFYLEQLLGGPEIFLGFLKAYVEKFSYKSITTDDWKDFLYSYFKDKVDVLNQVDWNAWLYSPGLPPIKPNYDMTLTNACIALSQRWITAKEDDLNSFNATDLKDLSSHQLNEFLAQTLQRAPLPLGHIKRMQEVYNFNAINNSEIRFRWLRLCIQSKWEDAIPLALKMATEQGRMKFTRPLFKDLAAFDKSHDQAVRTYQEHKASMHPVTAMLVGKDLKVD

Row | Compound | IC50 [1] | IC50 [2]
1 | O=C(Cc1ccc(Oc2ccccc2)cc1)NCCc1ccc(Cl)cc1 | 1.8 µM | 
2 | O=C(Cc1ccc(Oc2ccccc2)cc1)NCCc1ccc(F)cc1 | 0.9 µM | 
3 | Fc1ccc(CCNCc2ccc(Oc3ccccc3)cc2)cc1 | 3.6 µM | 0.2 µM
4 | O=C(Cc1ccc(Oc2nc3ccccc3s2)cc1F)NCc1c[nH]c2cc(F)ccc12 | 5.6 µM | 0.9 µM
5 | O=C(Cc1ccc(Oc2nc3cc(C(F)(F)F)ccc3s2)cc1F)NCCc1ccc(F)cc1 | 1.7 µM | > 30 µM
6 | O=C(Cc1ccc(Oc2nc3ccc(C(F)(F)F)cc3s2)cc1F)NCCc1ccc(F)cc1 | 20.1 µM | > 30 µM
7 | O=C(Cc1ccc(Oc2nc3ccc(F)cc3s2)cc1F)NCCc1ccc(F)cc1 | 27.5 µM | > 30 µM
8 | O=C(Cc1ccc(Oc2nc3cc(F)ccc3s2)cc1F)NCCc1ccc(F)cc1 | 22.5 µM | > 30 µM
9 | Cc1ccc(CCNC(=O)Cc2ccc(Oc3ccccc3)cc2)cc1 | 1.1 µM | > 30 µM
10 | O=C(CCc1ccc(OCc2ccncc2)cc1)NCCc1ccc(F)cc1 | 0.8 µM | > 30 µM

The next compounds have a lower IC50 [1] than those just listed; values first:

Row | IC50 [1] | IC50 [2] | Compound
11 | 0.5 µM |  | O=C(Cc1ccc(Oc2ccccc2)cc1)NCCc1ccc(C(F)(F)F)cc1
12 | 0.13 µM | 0.24 µM | O=C(Cc1ccc(Oc2nc3ccccc3s2)cc1)NCCc1ccc(F)cc1
13 | 0.4 µM |  | O=C(Cc1ccc(Oc2nc3ccccc3s2)cc1F)NCCc1cccc(F)c1
14 | 0.6 µM | 3.8 µM | O=C(Cc1ccc(Oc2nc3ccccc3s2)cc1F)NCCc1ccccc1F
15 | 0.5 µM |  | O=C(Cc1ccc(Oc2ccccc2)cc1)NCCc1ccc(OC(F)(F)F)cc1
16 | 0.1 µM | > 30 µM | COC(=O)c1ccc(CNC(=O)Cc2ccc(Oc3nc4ccccc4s3)cc2F)cc1

From ChEMBL document CHEMBL4342480, “Design of Dual Inhibitors of Soluble Epoxide Hydrolase and LTA4 Hydrolase” (ACS Med Chem Lett, 2020)
